Assay: Agonist activity at vitamin D3 receptor in human HL-60 cells assessed as induction of cell differentiation after 96 hrs by NBT dye-based microscopic analysis

EC50	SMILES
2.3 nM	CC[C@@H](C)[C@H](NC(=O)c1ccc(C(CC)(CC)c2ccc(OCC(O)C(C)(C)C)c(C)c2)n1CC)C(=O)O (stereo partly specified)
26 nM	CC[C@@H](C)[C@H](NC(=O)c1ccc(C(CC)(CC)c2ccc(OCC(O)C(C)(C)C)c(C)c2)n1CC)C(=O)OC (stereo partly specified)
10 nM	CC[C@@H](C)[C@H](NC(=O)c1ccc(C(CC)(CC)c2ccc(OCC(=O)C(C)(C)C)c(C)c2)n1CC)C(=O)O
28800 nM	C#CCCOC(=O)c1ccc(C(CC)(CC)c2ccc(OCC(=O)C(C)(C)C)c(C)c2)n1CC
> 50000 nM	CCOC(=O)CC(C)OC(=O)c1ccc(C(CC)(CC)c2ccc(OCC(=O)C(C)(C)C)c(C)c2)n1CC (stereo unspecified)
> 50000 nM	CCn1c(C(=O)OCc2ccccn2)ccc1C(CC)(CC)c1ccc(OCC(=O)C(C)(C)C)c(C)c1
740 nM	CCn1c(C(=O)N(C)CC(=O)O)ccc1C(CC)(CC)c1ccc(OCC(O)C(C)(C)C)c(C)c1 (stereo unspecified)
> 50000 nM	CCn1c(C(=O)Nc2ccc(OC(F)(F)F)cc2)ccc1C(CC)(CC)c1ccc(OCC(O)C(C)(C)C)c(C)c1 (stereo unspecified)
120 nM	CCn1c(C(=O)NCCN)ccc1C(CC)(CC)c1ccc(OCC(=O)C(C)(C)C)c(C)c1
45600 nM	CCOC(=O)c1ccc(OC(=O)c2ccc(C(CC)(CC)c3ccc(OCC(=O)C(C)(C)C)c(C)c3)n2CC)cc1
21600 nM	C=CCN(C)C(=O)c1ccc(C(CC)(CC)c2ccc(OCC(=O)C(C)(C)C)c(C)c2)n1CC
91 nM	CCN(CC)CCNC(=O)c1ccc(C(CC)(CC)c2ccc(OCC(=O)C(C)(C)C)c(C)c2)n1CC
> 50000 nM	CCn1c(C(=O)Nc2cccc(C(F)(F)F)c2)ccc1C(CC)(CC)c1ccc(OCC(=O)C(C)(C)C)c(C)c1
590 nM	CCC(CC)(c1ccc(OCC(=O)C(C)(C)C)c(C)c1)c1ccc(OCC(=O)C(C)(C)C)c(C)c1 [LG190155]
3950 nM	C=CCN(C)C(=O)c1ccc(C(CC)(CC)c2ccc(OCC(O)C(C)(C)C)c(C)c2)n1CC (stereo unspecified)
380 nM	CCn1c(C(=O)OC(C)CCO)ccc1C(CC)(CC)c1ccc(OCC(=O)C(C)(C)C)c(C)c1 (stereo unspecified)
> 50000 nM	CCn1c(C(=O)Nc2ccc(OC(F)(F)F)cc2)ccc1C(CC)(CC)c1ccc(OCC(=O)C(C)(C)C)c(C)c1
210 nM	CCOC(=O)CN(C)C(=O)c1ccc(C(CC)(CC)c2ccc(OCC(O)C(C)(C)C)c(C)c2)n1CC (stereo unspecified)
130 nM	CCn1c(C(=O)NCCBr)ccc1C(CC)(CC)c1ccc(OCC(O)C(C)(C)C)c(C)c1 (stereo unspecified)

EC50	SMILES
18500 nM	CCn1c(C(=O)N(C)c2ccccc2)ccc1C(CC)(CC)c1ccc(OCC(=O)C(C)(C)C)c(C)c1
> 50000 nM	CCOc1ccc(NC(=O)c2ccc(C(CC)(CC)c3ccc(OCC(=O)C(C)(C)C)c(C)c3)n2CC)cc1
590 nM	CC[C@@H](C)[C@H](NC(=O)c1ccc(C(CC)(CC)c2ccc(OCC(=O)C(C)(C)C)c(C)c2)n1CC)C(=O)OC
200 nM	C#CC(C)OC(=O)c1ccc(C(CC)(CC)c2ccc(OCC(O)C(C)(C)C)c(C)c2)n1CC (stereo unspecified)
9500 nM	CCn1c(C(=O)OCc2ccc(F)cc2)ccc1C(CC)(CC)c1ccc(OCC(=O)C(C)(C)C)c(C)c1
5100 nM	CCn1c(C(=O)Oc2ccc(CCO)cc2)ccc1C(CC)(CC)c1ccc(OCC(O)C(C)(C)C)c(C)c1 (stereo unspecified)
1900 nM	CCn1c(C(=O)NCCBr)ccc1C(CC)(CC)c1ccc(OCC(=O)C(C)(C)C)c(C)c1
240 nM	C#CCNC(=O)c1ccc(C(CC)(CC)c2ccc(OCC(O)C(C)(C)C)c(C)c2)n1CC (stereo unspecified)
22 nM	CCN(CC)CCCNC(=O)c1ccc(C(CC)(CC)c2ccc(OCC(=O)C(C)(C)C)c(C)c2)n1CC
6400 nM	CCn1c(C(=O)N(C)c2ccccc2)ccc1C(CC)(CC)c1ccc(OCC(O)C(C)(C)C)c(C)c1 (stereo unspecified)
1030 nM	C#CCCOC(=O)c1ccc(C(CC)(CC)c2ccc(OCC(O)C(C)(C)C)c(C)c2)n1CC (stereo unspecified)
77 nM	CCn1c(C(=O)NCCN(C)C)ccc1C(CC)(CC)c1ccc(OCC(=O)C(C)(C)C)c(C)c1
630 nM	CCOc1ccc(NC(=O)c2ccc(C(CC)(CC)c3ccc(OCC(O)C(C)(C)C)c(C)c3)n2CC)cc1 (stereo unspecified)
> 50000 nM	CCn1c(C(=O)Nc2cccc(C(F)(F)F)c2)ccc1C(CC)(CC)c1ccc(OCC(O)C(C)(C)C)c(C)c1 (stereo unspecified)
97 nM	CCn1c(C(=O)N(CCC#N)CCC#N)ccc1C(CC)(CC)c1ccc(OCC(O)C(C)(C)C)c(C)c1 (stereo unspecified)
240 nM	CCn1c(C(=O)NCCCN2CCOCC2)ccc1C(CC)(CC)c1ccc(OCC(=O)C(C)(C)C)c(C)c1
10 nM	CCn1c(C(=O)NCCN)ccc1C(CC)(CC)c1ccc(OCC(O)C(C)(C)C)c(C)c1 (stereo unspecified)
14 nM	CCn1c(C(=O)NCCN(C)C)ccc1C(CC)(CC)c1ccc(OCC(O)C(C)(C)C)c(C)c1 (stereo unspecified)
870 nM	CCn1c(C(=O)N(CCC#N)CCC#N)ccc1C(CC)(CC)c1ccc(OCC(=O)C(C)(C)C)c(C)c1

EC50	SMILES
1390 nM	CCn1c(C(=O)N(C)CC(=O)O)ccc1C(CC)(CC)c1ccc(OCC(=O)C(C)(C)C)c(C)c1
> 50000 nM	CCn1c(C(=O)OCc2ccccn2)ccc1C(CC)(CC)c1ccc(OCC(O)C(C)(C)C)c(C)c1 (stereo unspecified)
130 nM	CCn1c(C(=O)NCC(OC)OC)ccc1C(CC)(CC)c1ccc(OCC(=O)C(C)(C)C)c(C)c1
66 nM	CCN(CC)CCCNC(=O)c1ccc(C(CC)(CC)c2ccc(OCC(O)C(C)(C)C)c(C)c2)n1CC (stereo unspecified)
9800 nM	CCn1c(C(=O)N(C)CCC#N)ccc1C(CC)(CC)c1ccc(OCC(=O)C(C)(C)C)c(C)c1
> 50000 nM	CCOC(=O)c1ccc(OC(=O)c2ccc(C(CC)(CC)c3ccc(OCC(O)C(C)(C)C)c(C)c3)n2CC)cc1 (stereo unspecified)
2200 nM	C#CCNC(=O)c1ccc(C(CC)(CC)c2ccc(OCC(=O)C(C)(C)C)c(C)c2)n1CC
210 nM	C#CC(C)OC(=O)c1ccc(C(CC)(CC)c2ccc(OCC(=O)C(C)(C)C)c(C)c2)n1CC (stereo unspecified)
18 nM	CCn1c(C(=O)NCCCN2CCOCC2)ccc1C(CC)(CC)c1ccc(OCC(O)C(C)(C)C)c(C)c1 (stereo unspecified)
8.5 nM	CCn1c(C(=O)N[C@@H](C)CO)ccc1C(CC)(CC)c1ccc(OCC(O)C(C)(C)C)c(C)c1 (stereo partly specified)
110 nM	CCN(CC)CCNC(=O)c1ccc(C(CC)(CC)c2ccc(OCC(O)C(C)(C)C)c(C)c2)n1CC (stereo unspecified)
96 nM	CCn1c(C(=O)NCCCN(C)C)ccc1C(CC)(CC)c1ccc(OCC(=O)C(C)(C)C)c(C)c1
2320 nM	CCn1c(C(=O)Oc2ccc(CC(=O)OC)cc2)ccc1C(CC)(CC)c1ccc(OCC(=O)C(C)(C)C)c(C)c1
150 nM	CCn1c(C(=O)NCC(OC)OC)ccc1C(CC)(CC)c1ccc(OCC(O)C(C)(C)C)c(C)c1 (stereo unspecified)
37 nM	CCn1c(C(=O)NCCCN(C)C)ccc1C(CC)(CC)c1ccc(OCC(O)C(C)(C)C)c(C)c1 (stereo unspecified)
1960 nM	CCn1c(C(=O)N(C)CCC#N)ccc1C(CC)(CC)c1ccc(OCC(O)C(C)(C)C)c(C)c1 (stereo unspecified)
> 50000 nM	CCn1c(C(=O)OCc2ccc(F)cc2)ccc1C(CC)(CC)c1ccc(OCC(O)C(C)(C)C)c(C)c1 (stereo unspecified)
> 50000 nM	CCOC(=O)CN(C)C(=O)c1ccc(C(CC)(CC)c2ccc(OCC(=O)C(C)(C)C)c(C)c2)n1CC

— BindingDB's records for doi:10.1016/j.ejmech.2015.10.042 (China Pharmaceutical University, 2016)
